According to ChEMBL document CHEMBL5500416, “Development of a Potent and Selective G2A (GPR132) Agonist” (J Med Chem, 2024):

Experiments:
[1] = molecular target: T1, Probable G-protein coupled receptor 132 (Homo sapiens, UniProt Q9UNW8)
T1 sequence (Q9UNW8 whole entry): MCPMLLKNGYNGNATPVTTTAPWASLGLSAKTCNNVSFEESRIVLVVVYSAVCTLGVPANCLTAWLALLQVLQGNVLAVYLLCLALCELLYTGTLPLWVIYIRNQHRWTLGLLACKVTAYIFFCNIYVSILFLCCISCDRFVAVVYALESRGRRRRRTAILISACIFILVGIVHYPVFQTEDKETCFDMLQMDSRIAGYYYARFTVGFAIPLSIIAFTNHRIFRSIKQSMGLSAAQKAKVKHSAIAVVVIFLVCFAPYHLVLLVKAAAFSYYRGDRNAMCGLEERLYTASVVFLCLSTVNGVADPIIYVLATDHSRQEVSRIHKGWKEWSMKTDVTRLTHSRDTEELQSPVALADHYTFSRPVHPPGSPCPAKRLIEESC
Description: Agonist activity at human G2A expressed in CHO-K1 cells co-expressing human GNA11 assessed as accumulation of IP-1 incubated for 90 mins by HTRF based FRET assay

[2] = Drug concentration in male C57BL/6N mouse plasma at 1 mg/kg, iv measured after 8 hrs by LC-MS analysis; type: ADME, organism-based
[3] = AUC (0 to 8 hrs) in male C57BL/6N mouse at 1 mg/kg, iv measured after 8 hrs by LC-MS analysis; type: ADME, organism-based; details: in vivo
[4] = Clearance in male C57BL/6N mouse at 10 mg/kg, sc measured after 12 hrs by LC-MS analysis; type: ADME, organism-based; details: in vivo
[5] = molecular target: T1, Probable G-protein coupled receptor 132; remark: listed apart in the source
Description: Binding affinity to SmBit-tagged human G2A expressed in CHOK-1 cells co-expressing LgBit-betaarrestin2 incubated for 15 mins by NanoLuc betaarrestin2 recruitment assay

[6] = Metabolic stability in Sprague-Dawley rat liver microsomes assessed as parent compound remaining measured after 60 mins in presence of NADPH regenerating system by HPLC analysis; type: ADME, Microsome; details: read-out: Stability
[7] = Cmax in male C57BL/6N mouse at 10 mg/kg, sc measured after 12 hrs by LC-MS analysis; type: ADME, organism-based; details: in vivo
[8] = Metabolic stability in Sprague-Dawley rat liver microsomes assessed as intrinsic clearance measured after 60 mins in presence of NADPH regenerating system by HPLC analysis; type: ADME, Microsome; details: 1 h
[9] = AUC (0 to 12 hrs) in male C57BL/6N mouse at 10 mg/kg, sc measured after 12 hrs by LC-MS analysis; type: ADME, organism-based; details: in vivo
[10] = Drug concentration in male C57BL/6N mouse plasma at 10 mg/kg, sc measured after 12 hrs by LC-MS analysis; type: ADME, organism-based
[11] = Tmax in male C57BL/6N mouse at 10 mg/kg, sc measured after 12 hrs by LC-MS analysis; type: ADME, organism-based; details: in vivo
[12] = Tmax in male C57BL/6N mouse at 1 mg/kg, iv measured after 8 hrs by LC-MS analysis; type: ADME, organism-based; details: in vivo
[13] = Aqueous solubility of compound in PBS at pH 7.4 measured after 24 hrs by microplate analysis; type: physicochemical; details: buffer, pH 7.4, 24 h
[14] = Cmax in male C57BL/6N mouse at 1 mg/kg, iv measured after 8 hrs by LC-MS analysis; type: ADME, organism-based; details: in vivo
[15] = Cytotoxicity against human HepG2 cells assessed as cell viability upto 100 uM incubated for 72 hrs by CellTiter-Glo assay relative to control; type: toxicity, cell-based; details: read-out: Activity

Row | EC50 [1] [µM] | SMILES | further results
1 | 3.92 | O=C1C2=C(CCN(Cc3ccccc3)C2)N2CCN=C2N1Cc1ccc(C(F)(F)F)cc1 | –
2 | 7.5 | O=C(NC(Cc1ccccc1)C(=O)O)c1cccc(OCc2ccccc2)c1 (stereo unspecified) | –
3 | 7.53 | O=C(N[C@H](Cc1ccc(Cl)cc1)C(=O)O)c1cccc(OCc2cccnc2)c1 | –
4 | 12.2 | O=C(N[C@@H](CC1CCCCC1)C(=O)O)c1cccc(OCc2cccnc2)c1 | –
5 | 38.4 | O=C(N[C@@H](C(=O)O)c1ccccc1)c1cccc(OCc2cccnc2)c1 | –
6 | 13.2 | C[C@H]1CC[C@@](NC(=O)c2cccc(OCc3cccnc3)c2)(C(=O)O)CC1 | –
7 | 27.5 | CCC(NC(=O)c1cccc(OCc2cccnc2)c1)C(=O)O (stereo unspecified) | –
8 | 1.96 | O=C(NC(Cc1ccc(F)cc1)C(=O)O)c1cccc(OCc2cccnc2)c1 (stereo unspecified) | –
9 | 40.6 | CCC[C@@H](NC(=O)c1cccc(OCc2cccnc2)c1)C(=O)O | –
10 | 12 | O=C(N[C@H](CCc1ccccc1)C(=O)O)c1cccc(OCc2cccnc2)c1 | –
11 | 6.87 | CCCC(NC(=O)c1cccc(OCc2cccnc2)c1)C(=O)O (stereo unspecified) | –
12 | > 100 | COC[C@H](NC(=O)c1cccc(OCc2cccnc2)c1)C(=O)O | –
13 | 79.2 | O=C(NC(C(=O)O)c1cccnc1)c1cccc(OCc2cccnc2)c1 (stereo unspecified) | –
14 | 8.71 | O=C(N[C@H](Cc1ccc(C(F)(F)F)cc1)C(=O)O)c1cccc(OCc2cccnc2)c1 | –
15 | > 100 | O=C(NC(C(=O)O)C1CC1)c1cccc(OCc2cccnc2)c1 (stereo unspecified) | –
16 | 31.1 | O=C(N[C@@H](Cc1ccccc1)C(=O)O)c1cccc(OCc2cccnc2)c1 | –
17 | 6.2 | CC(NC(=O)c1cccc(OCc2cccnc2)c1)(C(=O)O)c1ccccc1 (stereo unspecified) | –
18 | 49.7 | O=C(NC(Cc1ccncc1)C(=O)O)c1cccc(OCc2cccnc2)c1 (stereo unspecified) | –
19 | 2.92 | CCC[C@H](NC(=O)c1cccc(OCc2cccnc2)c1)C(=O)O | –
20 | 13.5 | O=C(NC(Cc1ccccc1Cl)C(=O)O)c1cccc(OCc2cccnc2)c1 (stereo unspecified) | –
21 | 7.33 | CC(C)[C@H](NC(=O)c1cccc(OCc2cccnc2)c1)C(=O)O | –
22 | 19.6 | CC(c1ccccc1)C(NC(=O)c1cccc(OCc2cccnc2)c1)C(=O)O (stereo unspecified) | –
23 | 68.5 | O=C(N[C@@H](CCc1ccccc1)C(=O)O)c1cccc(OCc2cccnc2)c1 | –
24 | 64.8 | CC(C)[C@@H](NC(=O)c1cccc(OCc2cccnc2)c1)C(=O)O | –
25 | 7.5 | CCCCC/C=C\C=C\C(O)CCCCCCCC(=O)O (racemic) | –
26 | 2.87 | O=C(NC(Cc1ccccc1)C(=O)O)c1cccc(OCc2ccncc2)c1 (racemic) | –
27 | 38.2 | O=C(NC(Cc1ccccc1)C(=O)O)c1ccc(OCc2cccnc2)cc1 (racemic) | –
28 | 3.34 | O=C(NC(Cc1ccc(OC(F)(F)F)cc1)C(=O)O)c1cccc(OCc2cccnc2)c1 (racemic) | –
29 | 11.9 | O=C(NC(Cc1ccccc1)C(=O)O)c1cccc(OCc2ccccn2)c1 (racemic) | –

Row | SMILES | EC50 [1] [µM] | further results
30 | O=C(N[C@H](Cc1ccccc1)C(=O)O)c1cccc(OCc2cccnc2)c1 | 0.82 | concentration at 8 h [2]: 2.4 ng/mL; AUC(0-t) at 8 h [3]: 47.3 ng·h/mL; CL/F [4]: 141 mL/min/kg; EC50 [5]: 7.7 µM; remaining at 1 h [6]: 98%; Cmax [7]: 755 ng/mL; CLint [8]: 1.68 µL/min/mg; AUC(0-t) at 12 h [9]: 591 ng·h/mL; concentration at 12 h [10]: 2.9 ng/mL; Tmax [11]: 30 min; Tmax [12]: 15 min; solubility [13]: >= 3000 uM; Cmax [14]: 45.3 ng/mL; viability at 72 h, up to 100 µM [15]: ≥ 90%
31 | O=C(NC(Cc1ccccc1)C(=O)O)c1cccc(OCc2cccnc2)c1 (stereo unspecified) | 1.74 | viability at 72 h, up to 100 µM [15]: ≥ 90%
